14 molecules from patent US20240067632A1, “WEE1 Degrading Compounds and Uses Thereof” (Bristol-Myers Squibb Company, priority 2022, published 2024) can be followed below.

pEC50: −log10 of the molar value. Where two headings read alike, the source gives them in different places.

One test addresses T1, WEE1 (Homo sapiens, UniProt P30291+Q96SW2).
T1 construct: C-terminal ePL-tagged (DiscoverX, Fremont, CA) full-length WEE1 expression construct; expressed in transfected cells; host or cells: LentiX-HEK293T (Invitrogen), lentiviral transduction; co-expressing GSPT1-GN (G576N, lacking the first 158 amino acids)
As to the kind of experiment: WEE1-ePL degradation assay (LentiX-WEE1-ePL-GSPT1-ND cells, InCELL Hunter luminescence, 4 h). In kind it is cell-based. To be noted: 293T-LentiX WEE1-ePL cells; for DC50: read-out: 293T-LentiX WEE1-ePL Degradation 4 hr (EC50). Summed up: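 HEK293T cells stably expressing C-terminal ePL-tagged full-length WEE1, 2500 cells/well, treated 4 h at 37° C with a 10-point 3-fold series from 1 or 10 uM. Remaining WEE1-ePL read by InCELL Hunter luminescence after 30 min. EC50 came from a four-parameter logistic fit, with Ymax set from DMSO control.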

A further test deals with MKN45 cells. The experiment in a line: MKN45 cell proliferation assay (Cell-Titer-Glo, 120 h). To be noted: for pEC50: Homo sapiens, MKN-45, 120 h, Cell-Titer-Glo, read-out: MKN45 Cell Prolif. 120 hr (EC50); for MKN45 Cell Prolif. 120 hr (Ymin-Obs): minimal percent of DMSO control observed in the concentrations tested. In kind it is cell-based. Summed up:
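Cells seeded at 400/well onto pre-printed 10-point half-log dilutions (top 1 or 10 uM, 0.1% DMSO final), in triplicate, and grown 120 h at 37 C. Viability by Cell-Titer-Glo luminescence, blank-subtracted and normalised to DMSO; EC50 from four-parameter logistic fit, with observed minimal % of control recorded as Ymin-obs.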

[1] abbreviates: lower limit of the fit (0 = luciferase inhibitor, Ymax = DMSO control).
Setting [2] is: lower limit of the fit (Ymin=0 luciferase inhibitor, Ymax DMSO control).

In general, pEC50 refers to −log10 of the EC50, conventionally taken in molar units. `O=C1CCC(N2Cc3cc(O[C@H]4CCN(Cc5cc6ccc(F)cc6cn5)C4)ccc3C2=O)C(=O)N1` (stereo partly drawn) [3-(5-{[(3S)-1-[(7-fluoroisoquinolin-3-yl)methyl]pyrrolidin-3-yl]oxy}-1-oxo-2,3-dihydro-1H-isoindol-2-yl)piperidine-2,6-dione]: the “293T-LentiX WEE1-ePL Degradation 4 hr (Ymin)” value on WEE1 (setting [1]) amounted to 28.82. The DC50 on WEE1 amounted to 4.93 nM. Also, in the test on MKN45 cells (growth inhibition), the pEC50 is 7.61. Also, the “MKN45 Cell Prolif. 120 hr (Ymin-Obs)” value in the test on MKN45 cells is on record as 10.88.
The corresponding values for `O=C1CCC(N2Cc3cc(O[C@H]4CCN(Cc5cnc6ncccc6c5)C4)ccc3C2=O)C(=O)N1` (stereo partly drawn) [3-(5-{[(3S)-1-[(1,8-naphthyridin-3-yl)methyl]pyrrolidin-3-yl]oxy}-1-oxo-2,3-dihydro-1H-isoindol-2-yl)piperidine-2,6-dione] are 27.365, 70.6 nM, 6.26 and 12.27.
For `CO[C@H]1CC[C@H](c2ccc3cc(CN4CC[C@H](Oc5ccc6c(c5)CN(C5CCC(=O)NC5=O)C6=O)C4)ccc3n2)C1` (stereo partly drawn) [3-(5-{[(3S)-1-({2-[(1S,3S)-3-methoxycyclopentyl]quinolin-6-yl}methyl)pyrrolidin-3-yl]oxy}-1-oxo-2,3-dihydro-1H-isoindol-2-yl)piperidine-2,6-dione], the “293T-LentiX WEE1-ePL Degradation 4 hr (Ymin)” value on WEE1 (setting [1]) is 32.5. Moreover, the DC50 at WEE1 came out at 6.19 nM. For the same molecule, in the test with MKN45 cells (growth inhibition), the pEC50 was 8.32. In the test on MKN45 cells, the “MKN45 Cell Prolif. 120 hr (Ymin-Obs)” value turned out to be 8.927.
As to `O=C1CCC(N2Cc3cc(O[C@H]4CCN(Cc5ccc6ncc(F)cc6c5)C4)ccc3C2=O)C(=O)N1` (stereo partly drawn) [3-(5-{[(3S)-1-[(3-fluoroquinolin-6-yl)methyl]pyrrolidin-3-yl]oxy}-1-oxo-2,3-dihydro-1H-isoindol-2-yl)piperidine-2,6-dione], the “293T-LentiX WEE1-ePL Degradation 4 hr (Ymin)” value on WEE1 (setting [1]) stood at 34.66. The DC50 at WEE1 is 8.72 nM. Besides, in the test on MKN45 cells (growth inhibition), the pEC50 was 7.12. In addition, the “MKN45 Cell Prolif. 120 hr (Ymin-Obs)” value with MKN45 cells was determined as 19.555.
In the case of `COC[C@H]1CCC[C@@H]1c1ccc2cc(CN3CC[C@H](Oc4ccc5c(c4)CN(C4CCC(=O)NC4=O)C5=O)C3)ccc2n1` (stereo partly drawn) [3-(5-{[(3S)-1-({2-[(1S,2S)-2-(methoxymethyl)cyclopentyl]quinolin-6-yl}methyl)pyrrolidin-3-yl]oxy}-1-oxo-2,3-dihydro-1H-isoindol-2-yl)piperidine-2,6-dione], on WEE1 (setting [2]), the “293T-LentiX WEE1-ePL Degradation 4 hr (Ymin)” value is recorded as 27.68. On WEE1, the DC50 was determined as 5.38 nM. In the test on MKN45 cells, the pEC50 was 7.92 and the “MKN45 Cell Prolif. 120 hr (Ymin-Obs)” value worked out at 11.37.
Regarding `CN(c1ccc2cc(CN3CC[C@H](Oc4ccc5c(c4)CN(C4CCC(=O)NC4=O)C5=O)C3)ccc2n1)C1CCOCC1` (stereo partly drawn) [3-(5-{[(3S)-1-({2-[methyl(oxan-4-yl)amino]quinolin-6-yl}methyl)pyrrolidin-3-yl]oxy}1-oxo-2,3-dihydro-1H-isoindol-2-yl)piperidine-2,6-dione], the “293T-LentiX WEE1-ePL Degradation 4 hr (Ymin)” value on WEE1 (setting [1]) was 32. Moreover, the DC50 on WEE1 is 1.82 nM. The pEC50 in the test on MKN45 cells (growth inhibition) was 8.46. Also, the “MKN45 Cell Prolif. 120 hr (Ymin-Obs)” value in the test with MKN45 cells is reported as 8.45.
`CO[C@H]1CC[C@H](Nc2ccc3cc(CN4CC[C@H](Oc5ccc6c(c5)CN(C5CCC(=O)NC5=O)C6=O)C4)ccc3n2)CC1` (stereo partly drawn) [3-(1-oxo-5-{[(3S)-1-[(2-{[(1r,4r)-4-methoxycyclohexyl]amino}quinolin-6-yl)methyl]pyrrolidin-3-yl]oxy}-2,3-dihydro-1H-isoindol-2-yl)piperidine-2,6-dione]: the “293T-LentiX WEE1-ePL Degradation 4 hr (Ymin)” value on WEE1 (setting [1]) is listed as 32.5. Also, the DC50 on WEE1 was determined as 6.28 nM. In addition, the pEC50 in the test on MKN45 cells (growth inhibition) is 8.30. Besides, in the test with MKN45 cells, the “MKN45 Cell Prolif. 120 hr (Ymin-Obs)” value is reported as 8.26.
Regarding `CN1CCc2cc(CN3CC[C@H](Oc4ccc5c(c4)CN(C4CCC(=O)NC4=O)C5=O)C3)cnc2C1` (stereo partly drawn) [3-(5-{[(3S)-1-[(7-methyl-5,6,7,8-tetrahydro-1,7-naphthyridin-3-yl)methyl]pyrrolidin-3-yl]oxy}-1-oxo-2,3-dihydro-1H-isoindol-2-yl)piperidine-2,6-dione], the “293T-LentiX WEE1-ePL Degradation 4 hr (Ymin)” value at WEE1 (setting [1]) is on record as 34. Further, the DC50 at WEE1 stood at 65.1 nM. Also, the pEC50 with MKN45 cells (growth inhibition) was 6.37. The “MKN45 Cell Prolif. 120 hr (Ymin-Obs)” value with MKN45 cells is on record as 11.9.
In the case of `O=C1CC[C@H](N2Cc3cc(O[C@H]4CCN(Cc5cc(F)c6nc(C7CCOCC7)ncc6c5)C4)ccc3C2=O)C(=O)N1` [(3S)-3-(5-{[(3S)-1-{[8-fluoro-2-(oxan-4-yl)quinazolin-6-yl]methyl}pyrrolidin-3-yl]oxy}-1-oxo-2,3-dihydro-1H-isoindol-2-yl)piperidine-2,6-dione], the “293T-LentiX WEE1-ePL Degradation 4 hr (Ymin)” value on WEE1 (setting [2]) amounted to 33.6. For the same molecule, on WEE1, the DC50 worked out at 27.6 nM. In addition, in the test on MKN45 cells, the pEC50 is 7.87 and the “MKN45 Cell Prolif. 120 hr (Ymin-Obs)” value is 9.241.
With `O=C1CCC(N2Cc3cc(O[C@H]4CCN(Cc5ccc6nc(C7CC7)ccc6c5)C4)ccc3C2=O)C(=O)N1` (stereo partly drawn) [3-(5-{[(3S)-1-[(2-cyclopropylquinolin-6-yl)methyl]pyrrolidin-3-yl]oxy}-1-oxo-2,3-dihydro-1H-isoindol-2-yl)piperidine-2,6-dione], the “293T-LentiX WEE1-ePL Degradation 4 hr (Ymin)” value on WEE1 (setting [1]) turned out to be 34.33. For the same molecule, on WEE1, the DC50 came to 2.21 nM. The negative logarithm of the EC50 (pEC50) in the test on MKN45 cells (growth inhibition) was 8.22. In the test with MKN45 cells, the “MKN45 Cell Prolif. 120 hr (Ymin-Obs)” value is 12.12.
`O=C1CCC(N2Cc3cc(O[C@H]4CCN(Cc5cc6cnccc6cn5)C4)ccc3C2=O)C(=O)N1` (stereo partly drawn) [3-(5-{[(3S)-1-[(2,6-naphthyridin-3-yl)methyl]pyrrolidin-3-yl]oxy}-1-oxo-2,3-dihydro-1H-isoindol-2-yl)piperidine-2,6-dione]: at WEE1 (setting [1]), the “293T-LentiX WEE1-ePL Degradation 4 hr (Ymin)” value is 34.11. For the same molecule, the DC50 at WEE1 came out at 39.9 nM. In addition, the pEC50 in the test with MKN45 cells (growth inhibition) was 6.26. Besides, in the test on MKN45 cells, the “MKN45 Cell Prolif. 120 hr (Ymin-Obs)” value was found to be 24.28.
Regarding `CN1CC(c2ccc3cc(CN4CC[C@H](Oc5ccc6c(c5)CN(C5CCC(=O)NC5=O)C6=O)C4)ccc3n2)C1` (stereo partly drawn) [3-(5-{[(3S)-1-{[2-(1-methylazetidin-3-yl)quinolin-6-yl]methyl}pyrrolidin-3-yl]oxy}-1-oxo-2,3-dihydro-1H-isoindol-2-yl)piperidine-2,6-dione], the “293T-LentiX WEE1-ePL Degradation 4 hr (Ymin)” value at WEE1 (setting [1]) is reported as 32. Also, on WEE1, the DC50 was determined as 100 nM. Besides, in the test on MKN45 cells (growth inhibition), the pEC50 was 7.03. Also, in the test with MKN45 cells, the “MKN45 Cell Prolif. 120 hr (Ymin-Obs)” value turned out to be 11.97.
`O=C1CC[C@H](N2Cc3cc(O[C@@H]4CN(Cc5ccc6nc(C7CCOCC7)ncc6c5)CC4(F)F)ccc3C2=O)C(=O)N1` [(3S)-3-(5-{[(3R)-4,4-difluoro-1-{[2-(oxan-4-yl)quinazolin-6-yl]methyl}pyrrolidin-3-yl]oxy}-1-oxo-2,3-dihydro-1H-isoindol-2-yl)piperidine-2,6-dione]: at WEE1 (setting [2]), the “293T-LentiX WEE1-ePL Degradation 4 hr (Ymin)” value is on record as 22.61. Also, the DC50 on WEE1 amounted to 105 nM. Moreover, in the test with MKN45 cells, the pEC50 was 7.34 and the “MKN45 Cell Prolif. 120 hr (Ymin-Obs)” value is recorded as 10.37.
Regarding `CO[C@H]1CC[C@](C)(Nc2ccc3cc(CN4CC[C@H](Oc5ccc6c(c5)CN(C5CCC(=O)NC5=O)C6=O)C4)ccc3n2)CC1` (stereo partly drawn) [3-(1-oxo-5-{[(3S)-1-[(2-{[(1r,4r)-4-methoxy-1-methylcyclohexyl]amino}quinolin-6-yl)methyl]pyrrolidin-3-yl]oxy}-2,3-dihydro-1H-isoindol-2-yl)piperidine-2,6-dione], the “293T-LentiX WEE1-ePL Degradation 4 hr (Ymin)” value on WEE1 (setting [1]) was 30. The DC50 on WEE1 came out at 5.36 nM. Besides, in the test on MKN45 cells (growth inhibition), the pEC50 was 8.38. For the same molecule, the “MKN45 Cell Prolif. 120 hr (Ymin-Obs)” value in the test with MKN45 cells is reported as 8.155.
